Read-outs that look alike come from different tables or passages of the source.
Legend:
Experiment in all cases: In vitro enzyme inhibition assay (imipenem hydrolysis, UV 299 nm)
Format in all cases: biochemical
[1] = biological target: T1, IMP-1 (Serratia marcescens, UniProt P52699)
T1 construct: VIM-1; VIM-2
Method: (§1) In vitro enzyme inhibition assays: Enzyme inhibition assays are performed using purified MBL enzymes (NDM-1; VIM-1; VIM-2; IMP-1) in 10mM HEPES buffer pH 7.5 in 96-well microtiter plates. Imipenem (300µM) is used as substrates and its hydrolysis is followed at UV 299 nm during 10mn every 30 seconds using a Perkin Elmer Envision UV fluorescence plate reader. Hydrolysis rate data in presence of a range of inhibitors are analysed using Dotmatics database software and calculated IC50 values are converted to Ki values using the Cheng-Prusoff equation. Ki = IC50 / (1+([S]/Km) and where the Km values for […] are 70 µM, 1.5 µM, 9 µM and 25 µM respectively. Compound dilution is performed in DMSO. Mean Ki values from multiple experiments are presented. Results are shown in Table 1.

[2] = biological target: T2, VIM-2 (Escherichia coli, UniProt Q5U7L7); details: read-out: Ki (µM) VIM-2; purified enzyme, 10mM HEPES pH 7.5, Imipenem 300µM; mean Ki from IC50 by Cheng-Prusoff
T2 construct: VIM-1; VIM-2
Method: as §1

[3] = biological target: T3, VIM-1 (Pseudomonas aeruginosa, UniProt A0A0F7KYQ8)
T3 construct: VIM-1; VIM-2; IMP-1)
Method: as §1

[4] = biological target: T4, NDM-1 (Klebsiella pneumoniae, UniProt C7C422)
T4 construct: VIM-1; VIM-2
T4 sequence (C7C422 29-270, looked up): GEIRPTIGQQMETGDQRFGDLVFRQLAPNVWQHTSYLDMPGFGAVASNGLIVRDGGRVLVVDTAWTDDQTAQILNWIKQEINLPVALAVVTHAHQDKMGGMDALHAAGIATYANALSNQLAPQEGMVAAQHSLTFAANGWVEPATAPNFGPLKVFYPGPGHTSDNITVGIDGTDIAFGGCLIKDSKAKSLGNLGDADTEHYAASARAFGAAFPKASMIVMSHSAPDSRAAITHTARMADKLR
Method: as §1

[5] = read-out: Ki (µM) IMP-1; purified enzyme, 10mM HEPES pH 7.5, Imipenem 300µM; mean Ki from IC50 by Cheng-Prusoff
[6] = read-out: Ki (µM) VIM-1; purified enzyme, 10mM HEPES pH 7.5, Imipenem 300µM; mean Ki from IC50 by Cheng-Prusoff
[7] = read-out: Ki (µM) NDM-1; purified enzyme, 10mM HEPES pH 7.5, Imipenem 300µM; mean Ki from IC50 by Cheng-Prusoff

T1 sequence (P52699 19-246, looked up, species assumed): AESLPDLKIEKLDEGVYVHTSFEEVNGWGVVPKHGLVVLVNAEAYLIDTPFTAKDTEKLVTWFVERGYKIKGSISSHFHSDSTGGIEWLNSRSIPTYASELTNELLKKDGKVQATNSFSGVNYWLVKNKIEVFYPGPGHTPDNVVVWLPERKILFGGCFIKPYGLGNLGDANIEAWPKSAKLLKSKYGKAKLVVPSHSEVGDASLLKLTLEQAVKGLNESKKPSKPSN

Row | Ki ([1]; purified enzyme, 10mM HEPES pH 7.5, Imipenem 300µM; mean Ki from IC50 by Cheng-Prusoff; read-out: Ki (µM) IMP-1) [µM] | Ki ([3]; purified enzyme, 10mM HEPES pH 7.5, Imipenem 300µM; mean Ki from IC50 by Cheng-Prusoff; read-out: Ki (µM) VIM-1) [µM] | Ki ([4]; purified enzyme, 10mM HEPES pH 7.5, Imipenem 300µM; mean Ki from IC50 by Cheng-Prusoff; read-out: Ki (µM) NDM-1) [µM] | SMILES | Ki [1, 5] [µM] | Ki [2] [µM] | Ki [3, 6] [µM] | Ki [4, 7] [µM]
1 | – | – | – | C[n+]1ccn(CC(=O)Nc2ccc(S(=O)(=O)Nc3scnc3C(=O)[O-])cc2F)c1 [Example 1, 1-[({4-[(4-carboxy-1,3-thiazol-5-yl)sulfamoyl]-2-fluorophenyl}carbamoyl)methyl]-3-methyl-1H-imidazol-3-ium] | 1 to 8 | 0.05 to 0.2 | 0.2 to 0.5 | < 0.05
2 | – | – | – | Cc1n(CC(=O)Nc2ccc(S(=O)(=O)Nc3scnc3C(=O)[O-])cc2F)cc[n+]1C [Example 2, 1-[({4-[(4-carboxy-1,3-thiazol-5-yl)sulfamoyl]-2-fluorophenyl}carbamoyl)methyl]-2,3-dimethyl-1H-imidazol-3-ium] | 1 to 8 | 0.05 to 0.2 | 0.2 to 0.5 | 0.05 to 0.2
3 | – | – | – | C[n+]1ccn(CC(=O)Nc2ccc(S(=O)(=O)Nc3scnc3C(=O)[O-])cc2F)c1N [Example 3, 2-amino-1-[({4-[(4-carboxy-1,3-thiazol-5-yl)sulfamoyl]-2-fluorophenyl}carbamoyl)methyl]-3-methyl-1H-imidazol-3-ium] | 1 to 8 | 0.05 to 0.2 | 0.2 to 0.5 | 0.05 to 0.2
4 | 1 to 8 | 0.2 to 0.5 | 0.05 to 0.2 | CSc1n(CC(=O)Nc2ccc(S(=O)(=O)Nc3scnc3C(=O)[O-])cc2F)cc[n+]1C [Example 4] | – | – | – | –
5 | – | – | – | O=C(Cn1cc[n+]2c1COCC2)Nc1ccc(S(=O)(=O)Nc2scnc2C(=O)[O-])cc1F [Example 5, 1-[({4-[(4-carboxy-1,3-thiazol-5-yl)sulfamoyl]-2-fluorophenyl}carbamoyl)methyl]-1H,5H,6H,8H-4lambda5-imidazo[2,1-c][1,4]oxazin-4-ylium] | 1 to 8 | 0.05 to 0.2 | 0.5 to 0.8 | 0.05 to 0.2
6 | – | – | – | Cc1c[n+](C)cn1CC(=O)Nc1ccc(S(=O)(=O)Nc2scnc2C(=O)[O-])cc1F [Example 6, 1-[({4-[(4-carboxy-1,3-thiazol-5-yl)sulfamoyl]-2-fluorophenyl}carbamoyl)methyl]-3,5-dimethyl-1H-imidazol-3-ium] | 1 to 8 | 0.05 to 0.2 | 0.5 to 0.8 | 0.2 to 0.4
7 | – | – | – | Cc1cn(CC(=O)Nc2ccc(S(=O)(=O)Nc3scnc3C(=O)[O-])cc2F)c[n+]1C [Example 7, 1-[({4-[(4-carboxy-1,3-thiazol-5-yl)sulfamoyl]-2-fluorophenyl}carbamoyl)methyl]-3,4-dimethyl-1H-imidazol-3-ium] | 1 to 8 | 0.02 to 0.05 | < 0.2 | 0.2 to 0.4
8 | – | – | – | C[n+]1c(N)ccn1CC(=O)Nc1ccc(S(=O)(=O)Nc2scnc2C(=O)[O-])cc1F [Example 8, 3-amino-1-[({4-[(4-carboxy-1,3-thiazol-5-yl)sulfamoyl]-2-fluorophenyl}carbamoyl)methyl]-2-methyl-1H-pyrazol-2-ium] | 1 to 8 | – | 0.2 to 0.5 | 0.05 to 0.2
9 | – | – | – | C[n+]1ccn(CC(=O)Nc2ccc(S(=O)(=O)Nc3scnc3C(=O)[O-])cc2F)n1 [Example 9, 1-[({4-[(4-carboxy-1,3-thiazol-5-yl)sulfamoyl]-2-fluorophenyl}carbamoyl)methyl]-3-methyl-1H-1,2,3-triazol-3-ium] | 1 to 8 | 0.05 to 0.2 | 0.2 to 0.5 | < 0.05
10 | – | – | – | C[n+]1cccn1CC(=O)Nc1ccc(S(=O)(=O)Nc2scnc2C(=O)[O-])cc1F [Example 10, 1-[({4-[(4-carboxy-1,3-thiazol-5-yl)sulfamoyl]-2-fluorophenyl}carbamoyl)methyl]-2-methyl-1H-pyrazol-2-ium] | 1 to 8 | – | 0.2 to 0.5 | 0.05 to 0.2
11 | – | – | – | NCC[n+]1ccn(CC(=O)Nc2ccc(S(=O)(=O)Nc3scnc3C(=O)[O-])cc2F)c1 [Example 11, 3-(2-aminoethyl)-1-[({4-[(4-carboxy-1,3-thiazol-5-yl)sulfamoyl]-2-fluorophenyl}carbamoyl)methyl]-1H-imidazol-3-ium] | 1 to 8 | 0.02 to 0.05 | < 0.2 | < 0.05
12 | – | – | – | N=C(N)NCC[n+]1ccn(CC(=O)Nc2ccc(S(=O)(=O)Nc3scnc3C(=O)[O-])cc2F)c1 [Example 12, 3-(2-carbamimidamidoethyl)-1-[({4-[(4-carboxy-1,3-thiazol-5-yl)sulfamoyl]-2-fluorophenyl}carbamoyl)methyl]-1H-imidazol-3-ium] | 1 to 8 | 0.05 to 0.2 | < 0.2 | < 0.05
13 | – | – | – | C[n+]1ccn(CC(=O)Nc2c(F)cc(S(=O)(=O)Nc3scnc3C(=O)[O-])cc2F)c1 [Example 13, 1-[({4-[(4-carboxy-1,3-thiazol-5-yl)sulfamoyl]-2,6-difluorophenyl}carbamoyl)methyl]-3-methyl-1H-imidazol-3-ium] | 1 to 8 | 0.05 to 0.2 | 0.5 to 0.8 | 0.05 to 0.2
14 | – | – | – | NCC[n+]1ccn(CC(=O)Nc2c(F)cc(S(=O)(=O)Nc3scnc3C(=O)[O-])cc2F)c1 [Example 14, 3-(2-aminoethyl)-1-[({4-[(4-carboxy-1,3-thiazol-5-yl)sulfamoyl]-2,6-difluorophenyl}carbamoyl)methyl]-1H-imidazol-3-ium] | 1 to 8 | 0.02 to 0.05 | < 0.2 | < 0.05
15 | – | – | – | N=C(N)NCC[n+]1ccn(CC(=O)Nc2c(F)cc(S(=O)(=O)Nc3scnc3C(=O)[O-])cc2F)c1 [Example 15, 1-(2-carbamimidamidoethyl)-3-[({4-[(4-carboxy-1,3-thiazol-5-yl)sulfamoyl]-2,6-difluorophenyl}carbamoyl)methyl]imidazol-1-ium] | 1 to 8 | 0.02 to 0.05 | < 0.2 | < 0.05
16 | – | – | – | NCCC[n+]1ccn(CC(=O)Nc2ccc(S(=O)(=O)Nc3scnc3C(=O)[O-])cc2F)c1 [Example 16, 3-(3-aminopropyl)-1-[({4-[(4-carboxy-1,3-thiazol-5-yl)sulfamoyl]-2-fluorophenyl}carbamoyl)methyl]-1H-imidazol-3-ium] | 1 to 8 | < 0.02 | < 0.2 | < 0.05
17 | – | – | – | N#Cc1cc(S(=O)(=O)Nc2scnc2C(=O)[O-])ccc1NC(=O)Cn1cc[n+](CCN)c1 [Example 18, 3-(2-aminoethyl)-1-[({4-[(4-carboxy-1,3-thiazol-5-yl)sulfamoyl]-2-cyanophenyl}carbamoyl)methyl]-1H-imidazol-3-ium] | 0.5 to 1 | < 0.02 | < 0.2 | 0.05 to 0.2
18 | – | – | – | N#Cc1cc(S(=O)(=O)Nc2scnc2C(=O)[O-])ccc1NC(=O)Cn1cc[n+](CCNC(=N)N)c1 [Example 19, 3-(2-carbamimidamidoethyl)-1-[({4-[(4-carboxy-1,3-thiazol-5-yl)sulfamoyl]-2-cyanophenyl}carbamoyl)methyl]-1H-imidazol-3-ium] | 1 to 8 | 0.02 to 0.05 | < 0.2 | 0.2 to 0.4
19 | – | – | – | CN(C)CC[n+]1ccn(CC(=O)Nc2ccc(S(=O)(=O)Nc3scnc3C(=O)[O-])cc2F)c1 [Example 20, 3-[({4-[(4-carboxy-1,3-thiazol-5-yl)sulfamoyl]-2-fluorophenyl}carbamoyl)methyl]-1-[2-(dimethylamino)ethyl]imidazol-1-ium] | 1 to 8 | 0.05 to 0.2 | < 0.2 | < 0.05
20 | – | – | – | C[n+]1cn(CC(=O)Nc2ccc(S(=O)(=O)Nc3scnc3C(=O)[O-])cc2F)cn1 [Example 22, 4-[({4-[(4-carboxy-1,3-thiazol-5-yl)sulfamoyl]-2-fluorophenyl}carbamoyl)methyl]-1-methyl-1,2,4-triazol-1-ium] | 0.5 to 1 | 0.05 to 0.2 | 0.2 to 0.5 | 0.05 to 0.2
21 | – | – | – | C[n+]1ccn(CC(=O)Nc2c(F)cc(S(=O)(=O)Nc3scnc3C(=O)[O-])cc2F)n1 [Example 23, 1-[({4-[(4-carboxy-1,3-thiazol-5-yl)sulfamoyl]-2,6-difluorophenyl}carbamoyl)methyl]-3-methyl-1H-1,2,3-triazol-3-ium] | 1 to 8 | 0.05 to 0.2 | 0.2 to 0.5 | 0.05 to 0.2
22 | – | – | – | CC[n+]1ccn(CC(=O)Nc2ccc(S(=O)(=O)Nc3scnc3C(=O)[O-])cc2F)n1 [Example 24, 1-[({4-[(4-carboxy-1,3-thiazol-5-yl)sulfamoyl]-2-fluorophenyl}carbamoyl)methyl]-3-ethyl-1H-1,2,3-triazol-3-ium] | 0.5 to 1 | 0.05 to 0.2 | 0.2 to 0.5 | 0.05 to 0.2
23 | – | – | – | C[n+]1cnn(CC(=O)Nc2ccc(S(=O)(=O)Nc3scnc3C(=O)[O-])cc2F)c1 [Example 25, 1-[({4-[(4-carboxy-1,3-thiazol-5-yl)sulfamoyl]-2-fluorophenyl}carbamoyl)methyl]-4-methyl-1H-1,2,4-triazol-4-ium] | 1 to 8 | 0.05 to 0.2 | 0.2 to 0.5 | 0.05 to 0.2
